In this assay the target is T1, human GPR 119 receptor (Homo sapiens, UniProt Q8TDV5).
T1 construct: expressed in transfected cells
T1 sequence (Q8TDV5 1-335): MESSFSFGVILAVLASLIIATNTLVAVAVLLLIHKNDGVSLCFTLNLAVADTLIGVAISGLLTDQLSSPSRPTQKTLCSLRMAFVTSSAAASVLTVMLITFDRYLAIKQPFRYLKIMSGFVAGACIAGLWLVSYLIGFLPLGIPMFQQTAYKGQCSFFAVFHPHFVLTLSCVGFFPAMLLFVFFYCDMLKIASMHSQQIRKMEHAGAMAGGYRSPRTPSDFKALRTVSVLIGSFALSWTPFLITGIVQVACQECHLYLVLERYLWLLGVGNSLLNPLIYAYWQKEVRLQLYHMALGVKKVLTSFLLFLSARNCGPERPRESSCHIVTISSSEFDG
In words: cAMP assay in stable cell line expressing recombinant human GPR 119 receptor. In kind it is cell-based. The conditions noted are these: DMSO = 1. The text has this:
A stable cell line expressing recombinant human GPR 119 receptor was established and used to investigate the efficacy of the compounds of the invention based on the intracellular levels of cyclic AMP (cAMP) using commercially available cAMP kits.

For the compound `CCOC(=O)N1CCC(Oc2cc(Oc3ccc(/C=C4\SC(=O)NC4=O)cc3)ncn2)CC1` [Example 52, (Z)-Ethyl 4-((6-(4-((2,4-dioxothiazolidin-5-ylidene)methyl)phenoxy)pyrimidin-4-yl)oxy)piperidine-1-carboxylate], the “Fold increase in cyclic AMP with respective to DMSO” value (shortened to “Fold increase in cyclic AMP”) is, setting by setting: (10 nM compound) 1.15 fold; (100 nM compound) 1.94 fold; (1 uM compound) 3.36 fold.
The like results for `CC(C)(C)OC(=O)N1CCC(Oc2cc(Oc3cccc(/C=C4\SC(=O)NC4=O)c3)ncn2)CC1` [Example 19, (Z)-tert-Butyl 4-((6-(3-((2,4-dioxothiazolidin-5-ylidene)methyl)phenoxy)pyrimidin-4-yl)oxy)piperidine-1-carboxylate] were, in that order, 1.31 fold, 1.92 fold and 4.24 fold.
With `Cc1c(Oc2cccc(/C=C3\SC(=O)NC3=O)c2)ncnc1OC1CCN(c2ncccn2)CC1` [Example 28, (Z)-5-(3-((5-Methyl-6-((1-(pyrimidin-2-yl)piperidin-4-yl)oxy)pyrimidin-4-yl)oxy)benzylidene)thiazolidine-2,4-dione], the “Fold increase in cyclic AMP” value (10 nM compound) was 1.32 fold, the “Fold increase in cyclic AMP” value (100 nM compound) amounted to 2.86 fold and the “Fold increase in cyclic AMP” value (1 uM compound) came out at 4.56 fold.
With `CCc1cnc(N2CCC(Oc3cc(Oc4ccc(/C=C5\SC(=O)NC5=O)cc4)ncn3)CC2)nc1` [Example 41, (Z)-5-(4-((6-((1-(5-Ethylpyrimidin-2-yl)piperidin-4-yl)oxy)pyrimidin-4-yl)oxy)benzylidene)thiazolidine-2,4-dione], the “Fold increase in cyclic AMP” value is, setting by setting: (10 nM compound) 1.00 fold; (100 nM compound) 1.58 fold; (1 uM compound) 3.53 fold.
The like results for `COc1cc(/C=C2\SC(=O)NC2=O)ccc1Oc1ncnc(OC2CCN(C(=O)OC(C)(C)C)CC2)c1C` [Example 8, (Z)-tert-Butyl 4-((6-(4-((2,4-dioxothiazolidin-5-ylidene)methyl)-2-methoxyphenoxy)-5-methylpyrimidin-4-yl)oxy)piperidine-1-carboxylate] were, in that order, 0.52 fold, 0.85 fold and 1.67 fold.
The like results for `COC(=O)N1CCC(Oc2ncnc(Oc3cccc(/C=C4\SC(=O)NC4=O)c3)c2C)CC1` [Example 21, (Z)-Methyl 4-((6-(3-((2,4-dioxothiazolidin-5-ylidene)methyl)phenoxy)-5-methylpyrimidin-4-yl)oxy)piperidine-1-carboxylate] were, in that order, 0.92 fold, 1.06 fold and 2.35 fold.
The like results for `O=C1NC(=O)/C(=C/c2ccc(Oc3cc(OC4CCN(c5ncccn5)CC4)ncn3)cc2)S1` [Example 43, (Z)-5-(4-((6-((1-(Pyrimidin-2-yl)piperidin-4-yl)oxy)pyrimidin-4-yl)oxy)benzylidene)thiazolidine-2,4-dione] were, in that order, 0.94 fold, 1.27 fold and 1.98 fold.
Regarding `CCN1C(=O)S/C(=C\c2ccc(Oc3cc(OC4CCN(C(=O)OC(C)(C)C)CC4)ncn3)cc2)C1=O` [Example 31, (Z)-tert-Butyl 4-((6-(4-((3-ethyl-2,4-doxothiazolidin-5-ylidene)methyl)phenoxy)pyrimidin-4-yl)oxy)piperidine-1-carboxylate], the “Fold increase in cyclic AMP” value by setting is: (10 nM compound) 1.06 fold; (100 nM compound) 2.27 fold; (1 uM compound) 3.66 fold.
The like results for `Cc1c(OCC2CCCN2C(=O)OC(C)(C)C)ncnc1Oc1ccc(/C=C2\SC(=O)NC2=O)cc1` (stereo not drawn) [Example 18, (Z)-tert-Butyl 2-(((6-(4-((2,4-dioxothiazolidin-5-ylidene)methyl)phenoxy)-5-methylpyrimidin-4-yl)oxy)methyl)pyrrolidine-1-carboxylate] were, in that order, 1.50 fold, 2.57 fold and 4.03 fold.
`O=C1NC(=O)/C(=C/c2ccc(Oc3cc(OC4CCN(C(=O)OCc5ccccc5)CC4)ncn3)cc2)S1` [Example 30, (Z)-Benzyl 4-((6-(4-((2,4-dioxothiazolidin-5-ylidene)methyl)phenoxy)pyrimidin-4-yl)oxy)piperidine-1-carboxylate]: the “Fold increase in cyclic AMP” value (10 nM compound) was found to be 2.29 fold, the “Fold increase in cyclic AMP” value (100 nM compound) is 3.59 fold and the “Fold increase in cyclic AMP” value (1 uM compound) was determined as 7.4 fold.
The like results for `CC(=O)CN1C(=O)S/C(=C\c2ccc(Oc3cc(OC4CCN(C(=O)OC(C)(C)C)CC4)ncn3)cc2)C1=O` [Example 46, (Z)-tert-Butyl 4-((6-(4-((2,4-dioxo-3-(2-oxopropyl)thiazolidin-5-ylidene)methyl)phenoxy)pyrimidin-4-yl)oxy)piperidine-1-carboxylate] were, in that order, 1.58 fold, 1.89 fold and 5.45 fold.
The like results for `CCc1cnc(N2CCC(Oc3ncnc(Oc4cccc(/C=C5\SC(=O)NC5=O)c4)c3C)CC2)nc1` [Example 26, (Z)-5-(3-((6-((1-(5-Ethylpyrimidin-2-yl)piperidin-4-yl)oxy)-5-methylpyrimidin-4-yl)oxy)benzylidene)thiazolidine-2,4-dione] were, in that order, 4.02 fold, 7.17 fold and 9.34 fold.
The like results for `CCOC(=O)N1CCC(Oc2ncnc(Oc3cccc(/C=C4\SC(=O)NC4=O)c3)c2C)CC1` [Example 20, (Z)-Ethyl 4-((6-(3-((2,4-dioxothiazolidin-5-ylidene)methyl)phenoxy)-5-methylpyrimidin-4-yl)oxy)piperidine-1-carboxylate] were, in that order, 0.59 fold, 2.02 fold and 2.39 fold.
With `COC(=O)N1CCC(Oc2ncnc(Oc3ccc(/C=C4\SC(=O)NC4=O)cc3)c2C)CC1` [Example 11, (Z)-Methyl 4-((6-(4-((2,4-dioxothiazolidin-5-ylidene)methyl)phenoxy)-5-methylpyrimidin-4-yl)oxy)piperidine-1-carboxylate], the “Fold increase in cyclic AMP” value runs as follows: (10 nM compound) 1.00 fold; (100 nM compound) 1.38 fold; (1 uM compound) 2.51 fold.
The like results for `Cc1c(OCC2CCCN2C(=O)OC(C)(C)C)ncnc1Oc1cccc(/C=C2\SC(=O)NC2=O)c1` (stereo not drawn) [Example 23, (Z)-tert-Butyl 2-(((6-(3-((2,4-dioxothiazolidin-5-ylidene)methyl)phenoxy)-5-methylpyrimidin-4-yl)oxy)methyl)pyrrolidine-1-carboxylate] were, in that order, 0.90 fold, 1.29 fold and 1.11 fold.
The like results for `O=C1NC(=O)/C(=C/c2cccc(Oc3cc(OC4CCN(C(=O)OCc5ccccc5)CC4)ncn3)c2)S1` [Example 29, (Z)-Benzyl 4-((6-(3-((2,4-dioxothiazolidin-5-ylidene)methy 1)phenoxy)pyrimidin-4-yl)oxy)piperidine-1-carboxylate] were, in that order, 2.09 fold, 3.66 fold and 8.17 fold.
The like results for `CC(C)COC(=O)N1CCC(Oc2cc(Oc3ccc(/C=C4\SC(=O)NC4=O)cc3)ncn2)CC1` [Example 53, (Z)-Isobutyl 4-((6-(4-((2,4-dioxothiazolidin-5-ylidene)methyl)phenoxy)pyrimidin-4-yl)oxy)piperidine-1-carboxylate] were, in that order, 0.99 fold, 1.79 fold and 3.59 fold.
For `COC(=O)N1CCC(Oc2ncnc(Oc3cccc(/C=C4\SC(=O)N(C(C)C)C4=O)c3)c2C)CC1` [Example 32, (Z)-Methyl 4-((6-(3-((3-isopropyl-2,4-dioxothiazolidin-5-ylidene)methyl)phenoxy)-5-methylpyrimidin-4-yl)oxy)piperidine-1-carboxylate], the “Fold increase in cyclic AMP” value runs as follows: (10 nM compound) 0.77 fold; (100 nM compound) 0.94 fold; (1 uM compound) 1.45 fold.
Consider `COC(=O)N1CCC(Oc2cc(Oc3ccc(/C=C4\SC(=O)NC4=O)cc3)ncn2)CC1` [Example 35, (Z)-Methyl 4-((6-(4-((2,4-dioxothiazolidin-5-ylidene)methyl)phenoxy)pyrimidin-4-yl)oxy)piperidine-1-carboxylate], for which the “Fold increase in cyclic AMP” value is, setting by setting: (10 nM compound) 0.56 fold; (100 nM compound) 0.57 fold; (1 uM compound) 0.96 fold.
